Measured values as given in patent US20230390296A1, “NOVEL TREATMENT AND PREVENTION OF SARCOPENIA-RELATED DISEASES” (KEIO UNIVERSITY, priority 2020, published 2023).
Entries after “also recorded” stand apart in the source; their conditions may differ.

Key:
[1] = Blood (plasma) test of six markers with biochemical automatic analyzer; format: in vivo, mouse
Experimental: 75-week old mice (C57B16/J) were purchased from Oriental Yeast. Various concentrations (0 mg/kg (control), 0.2 mg/kg, 2 mg/kg, 20 mg/kg, and 40 mg/kg) of OK-1 were administered twice a week for 12 weeks until reaching 87-week old. Blood (plasma) was then recovered, and the concentrations of the following six markers were measured using a biochemical automatic analyzer (JCA-BM6050, JEOL). • LDH: lactate dehydrogenase can predict a liver, myocardial, or skeletal muscle disorder, etc. A decrease in LDH is expected to have a therapeutic effect on acute hepatitis, chronic hepatitis, cirrhosis, liver cancer, and other liver diseases, acute myocardial infarction, congested heart failure, and other heart diseases, polymyositis, muscular dystrophy, and other muscular diseases, pernicious anemia, leukemia, hemolytic anemia, etc. • ALT: This is a biomarker that can predict a liver tissue disorder. A decrease in ALT is expected to have a therapeutic effect on acute hepatitis, chronic hepatitis, alcoholic hepatitis, cirrhosis, liver cancer, fatty liver, acute myocardial infarction and other heart diseases, progressive muscular dystrophy and other muscular diseases, etc. • TG: Neutral fat is used for predicting diabetes, obesity, or arteriosclerotic disease. A decrease in TG is expected to have a therapeutic effect on hyperchylomicronemia, LPL deficiency, diabetes, obesity, arteriosclerosis, gout, hypothyroidism, Cushing's syndrome, nephrotic syndrome, obstructive jaundice, acute/chronic pancreatitis, etc. • HDL-C: This is used as a marker for arteriosclerosis, diabetes, cirrhosis, etc., of HDL cholesterol. A decrease in HDL-C is expected to have a therapeutic effect on primary biliary cirrhosis and hyperthyroidism. • UN: Urea nitrogen is a biomarker that can predict dysfunction of kidney or urinary system. An increase in UN is expected to have a therapeutic effect on toxic hepatitis, fulminant hepatitis, end-stage of cirrhosis, diabetes insipidus, acromegaly, etc. • UA: Uric acid is a biomarker for kidney or liver function. An increase in UA is expected to have a therapeutic effect on cirrhosis, xanthinuria, Fanconi syndrome, Wilson's syndrome, glomerulonephritis, etc.

[2] = system: Diabetes mouse models (e.g., KK/TaJcl); assay: Diabetes mouse model; format: in vivo; conditions: administered versus non-administered group
Experimental: Diabetes mouse models (e.g., KK/TaJcl) were divided into two groups. OK was administered to one of the groups, and OK was not administered to the other group.

[3] = system: 74-week old mice (C57B16/J); assay: Grip strength test (smart grip strength meter); format: in vivo, mouse; conditions: 7 mg/kg and 20 mg/kg intraperitoneal twice a week for 6 weeks
Experimental: 74-week old mice (C57B16/J) were purchased from Oriental Yeast. Various concentrations (0 mg/kg (control), 7 mg/kg, and 20 mg/kg) of C-82 were administered twice a week through a 6-week intraperitoneal administration until reaching 80-week old. Muscle strength (endurance) and grip strength of mice administered with C-82 were then measured through a treadmill test and smart grip strength meter for rats and mice (Muromachi Kikai Co., Ltd.), respectively. The treadmill test was conducted under the same condition as Example 1.

[4] = system: myoblast C2C12; assay: Gene analysis (RNA-seq) in C-82 treated myoblasts; format: cell-based, mouse; conditions: C-82 treated C2C12
Experimental: This Example investigated what gene modulation C-82 is involved with in myoblast C2C12 to identify a gene that is useful in the diagnosis or treatment of sarcopenia.
Gene analysis (RNA-seq) in C-82 treated myoblasts was performed by the same method as Example 2.

[5] = 75-week old mice, 0.2, 2, 20, 40 mg/kg twice a week for 12 weeks
[6] = at a specific OK-1 concentration, twice a week for 12 weeks

Compound	HDL-C concentration ([1]; 0.2 to 40 mg/kg twice a week for 12 weeks)	LDH concentration [1, 5]	UA concentration [1, 5]	ALT concentration [1, 6]	TG concentration [1, 6]	UN concentration [1, 6]	insulin secretion and insulin resistance [2]	grip strength [3]	gene group associated with C-82 (upstream transcription factor analysis) [4]	genes decreased significantly in myoblasts [4] [genes]	genes increased significantly in myoblasts [4] [genes]
C[C@H]1[C@H]2N(C(=O)CN(C)N2C(=O)NCc2ccccc2)[C@@H](Cc2ccc(OP(=O)(O)O)cc2)C(=O)N1Cc1cccc2cccnc12 [OK-1]	A significant change was not observed	reduces the LDH concentration	increases the UA concentration at all concentrations	a decrease in the ALT concentration	a decrease in TG concentration	an increase in UN concentration	at least one of insulin secretion and insulin resistance is improved				
C[C@H]1[C@H]2N(C(=O)CN(C)N2C(=O)NCc2ccccc2)[C@@H](Cc2ccc(O)cc2)C(=O)N1Cc1cccc2cccnc12 [C-82, (6S,9S)—N-benzyl-6-(4-hydroxybenzyl)-2,9-dimethyl-4,7-dioxo-8-(quinolin-8-ylmethyl)hexahydro-2H-pyrazino[2,1-c][1,2,4]triazine-1(6H)-carboxamide]								a significant difference was not observed in grip strength, a tendency for a concentration dependent increase was observed; also recorded: a significant difference was not observed in grip strength, a tendency of a concentration dependent increase was observed	Nfkb1, Srebf2, Sp1, Trp53, Xbp1, Myod1, Srebf1, Jun, Stat3, Sp3, Myf6, Nr3c1, Foxo3, Nfe212, Myf5, Ahr, Ep300, Myog, and Usf2	611	581
